Patent US10981911B2, “Imidazopyrrolopyridine as inhibitors of the JAK family of kinases” (Janssen Pharmaceutica NV, priority 2016, dated 2021)

What was measured:
Type in all cases: biochemical
JAK1-JH1JH2 = JAK1-JH1JH2 (Homo sapiens (Human), UniProt P23458); test: Enzymatic inhibition assay (RapidFire HTMS), JAK1; settings: 12.5 μM ATP, 200 μM substrate; read-out: JAK1-JH2JH1 IC50
Outline: (§1)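 Quenched with 0.5% TFA plus internal-standard peptide; phosphorylated product quantified by RapidFire C4 SPE–ESI-MS, 11-point 1:3 or 1:4 dilutions in duplicate.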

JAK2-JH1JH2 = JAK2-JH1JH2 (Homo sapiens (Human), UniProt O60674); test: Enzymatic inhibition assay (RapidFire HTMS), JAK2; settings: 30 μM ATP, 40 μM substrate
Outline: as §1

JAK3-JH1JH2 = JAK3-JH1JH2 (Homo sapiens (Human), UniProt P52333); test: Enzymatic inhibition assay (RapidFire HTMS), JAK3; settings: 150 μM ATP, 40 μM substrate
Outline: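 JAK3 JH1JH2 reaction incubated 45 min at 25 °C, then quenched with 0.5% TFA containing 0.15 μM internal standard peptide. Phosphopeptide product measured by RapidFire C4 SPE–ESI MS (positive mode); inhibition from product decrease versus uninhibited enzyme, 11-point 1:3 or 1:4 dilutions in duplicate.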

Tyk2-JH1JH2 = Tyk2-JH1JH2 (Homo sapiens (Human), UniProt P29597, C1142A/C936A); test: Enzymatic inhibition assay (RapidFire HTMS), Tyk2; settings: 50 μM ATP, 200 μM substrate
Outline: as §1

JAK2-JH1JH2, sequence (O60674 532-1132): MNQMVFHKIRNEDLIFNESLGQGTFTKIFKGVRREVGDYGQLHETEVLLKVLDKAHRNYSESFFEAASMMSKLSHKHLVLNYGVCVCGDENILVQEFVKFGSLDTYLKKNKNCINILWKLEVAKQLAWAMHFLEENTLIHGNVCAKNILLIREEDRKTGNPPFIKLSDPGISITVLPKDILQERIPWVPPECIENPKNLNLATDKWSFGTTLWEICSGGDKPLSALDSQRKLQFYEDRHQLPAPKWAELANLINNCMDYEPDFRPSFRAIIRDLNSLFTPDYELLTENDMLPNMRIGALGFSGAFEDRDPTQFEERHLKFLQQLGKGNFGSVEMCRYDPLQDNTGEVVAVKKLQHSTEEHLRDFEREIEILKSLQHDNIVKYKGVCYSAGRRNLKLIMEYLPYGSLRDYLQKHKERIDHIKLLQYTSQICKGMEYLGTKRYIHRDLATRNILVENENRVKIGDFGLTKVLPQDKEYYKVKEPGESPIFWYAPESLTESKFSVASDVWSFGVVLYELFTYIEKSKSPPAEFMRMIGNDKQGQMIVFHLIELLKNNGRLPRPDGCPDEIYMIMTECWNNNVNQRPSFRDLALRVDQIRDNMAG
JAK1-JH1JH2, sequence (P23458 574-1154): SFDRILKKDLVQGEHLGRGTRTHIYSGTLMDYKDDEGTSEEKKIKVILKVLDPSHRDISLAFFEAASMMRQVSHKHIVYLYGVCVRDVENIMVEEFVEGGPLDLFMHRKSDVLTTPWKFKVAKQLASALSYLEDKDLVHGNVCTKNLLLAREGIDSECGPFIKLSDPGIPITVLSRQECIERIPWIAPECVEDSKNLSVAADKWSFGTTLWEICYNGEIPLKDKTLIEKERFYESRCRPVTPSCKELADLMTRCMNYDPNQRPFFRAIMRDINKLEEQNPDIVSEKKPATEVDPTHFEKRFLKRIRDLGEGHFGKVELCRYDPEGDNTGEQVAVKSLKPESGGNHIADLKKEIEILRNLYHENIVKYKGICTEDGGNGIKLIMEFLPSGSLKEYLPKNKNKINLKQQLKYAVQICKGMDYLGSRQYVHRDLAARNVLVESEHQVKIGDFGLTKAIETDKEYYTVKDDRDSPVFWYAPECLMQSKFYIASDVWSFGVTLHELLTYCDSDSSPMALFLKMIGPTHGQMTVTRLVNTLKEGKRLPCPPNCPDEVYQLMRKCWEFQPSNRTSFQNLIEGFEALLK
Tyk2-JH1JH2, sequence (P29597 580-1182 C936A/C1142A): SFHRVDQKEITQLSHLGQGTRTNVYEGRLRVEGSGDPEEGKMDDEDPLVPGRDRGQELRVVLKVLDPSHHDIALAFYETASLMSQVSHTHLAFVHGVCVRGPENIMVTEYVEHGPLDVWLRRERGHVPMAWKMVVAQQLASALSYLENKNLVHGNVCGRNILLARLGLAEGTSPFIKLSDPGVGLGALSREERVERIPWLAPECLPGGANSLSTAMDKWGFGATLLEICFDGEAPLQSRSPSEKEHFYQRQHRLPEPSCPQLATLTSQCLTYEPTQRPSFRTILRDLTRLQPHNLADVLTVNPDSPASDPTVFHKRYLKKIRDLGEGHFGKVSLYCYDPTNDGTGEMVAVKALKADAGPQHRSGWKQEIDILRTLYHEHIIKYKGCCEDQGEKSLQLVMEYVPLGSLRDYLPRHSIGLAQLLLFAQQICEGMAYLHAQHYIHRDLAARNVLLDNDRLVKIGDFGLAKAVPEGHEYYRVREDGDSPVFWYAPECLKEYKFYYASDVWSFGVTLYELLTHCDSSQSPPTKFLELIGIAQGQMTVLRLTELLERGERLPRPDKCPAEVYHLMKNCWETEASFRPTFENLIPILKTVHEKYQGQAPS
JAK3-JH1JH2, sequence (P52333 512-1124): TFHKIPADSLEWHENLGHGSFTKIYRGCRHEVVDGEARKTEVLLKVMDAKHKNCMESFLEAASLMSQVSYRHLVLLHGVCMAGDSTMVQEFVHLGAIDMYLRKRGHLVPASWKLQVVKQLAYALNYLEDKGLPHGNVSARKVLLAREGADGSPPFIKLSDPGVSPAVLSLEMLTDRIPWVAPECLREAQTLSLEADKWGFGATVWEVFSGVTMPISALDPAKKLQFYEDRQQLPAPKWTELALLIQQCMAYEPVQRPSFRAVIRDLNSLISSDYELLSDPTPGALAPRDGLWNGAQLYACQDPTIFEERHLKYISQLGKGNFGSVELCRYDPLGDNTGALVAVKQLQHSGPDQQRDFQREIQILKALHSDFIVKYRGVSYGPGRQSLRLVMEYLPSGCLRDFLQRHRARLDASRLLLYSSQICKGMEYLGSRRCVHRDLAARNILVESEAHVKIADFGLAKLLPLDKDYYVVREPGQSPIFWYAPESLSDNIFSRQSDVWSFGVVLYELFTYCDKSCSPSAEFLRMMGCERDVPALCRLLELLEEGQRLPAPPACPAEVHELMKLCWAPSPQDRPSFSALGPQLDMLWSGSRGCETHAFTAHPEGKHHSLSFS

## N#CC[C@H]1CC[C@H](n2c(CNC(=N)C34CC5CC(CC(C5)C3)C4)nc3cnc4[nH]ccc4c32)CC1 [Ex. 156, (3R,5R,7R)—N-((1-((1r,4r)-4-(Cyanomethyl)cyclohexyl)-1,6-dihydroimidazo[4,5-d]pyrrolo[2,3-b]pyridin-2-yl)methyl)adamantane-1-carboximidamide]
JAK1-JH1JH2
  IC50: 1.3 nM
JAK2-JH1JH2
  IC50: 33.6 nM
JAK3-JH1JH2
  IC50: 1320 nM
Tyk2-JH1JH2
  IC50: 2.9 nM

## N#CC[C@H]1CC[C@H](n2c(CC(=O)N3CCC[C@H]3CO)nc3cnc4[nH]ccc4c32)CC1 [Ex. 195, 2-((1S,4r)-4-(2-(2-((S)-2-(hydroxymethyl)pyrrolidin-1-yl)-2-oxoethyl)imidazo[4,5-d]pyrrolo[2,3-b]pyridin-1(6H)-yl)cyclohexyl)acetonitrile]
JAK1-JH1JH2
  IC50: 3.3 nM
JAK2-JH1JH2
  IC50: 33.7 nM
JAK3-JH1JH2
  IC50: 294 nM
Tyk2-JH1JH2
  IC50: 11 nM

## N#CC[C@H]1CC[C@H](n2c(C3NC(C4CC4)=NO3)nc3cnc4[nH]ccc4c32)CC1 (some centres unmarked) [Ex. 140, 2-((1r,4r)-4-(2-(3-Cyclopropyl-4,5-dihydro-1,2,4-oxadiazol-5-yl)imidazo[4,5-d]pyrrolo[2,3-b]pyridin-1(6H)-yl)cyclohexyl)acetonitrile]
JAK1-JH1JH2
  IC50: 0.9 nM
JAK2-JH1JH2
  IC50: 4.5 nM
JAK3-JH1JH2
  IC50: 56.8 nM
Tyk2-JH1JH2
  IC50: 14.9 nM

## N#CC[C@H]1CC[C@H](NC(=O)Cc2nc3cnc4[nH]ccc4c3n2[C@H]2CC[C@H](CC#N)CC2)CC1 [Ex. 19, N-((1r,4r)-4-(Cyanomethyl)cyclohexyl)-2-(1-((1r,4r)-4-(cyanomethyl)cyclohexyl)-1,6-dihydroimidazo[4,5-d]pyrrolo[2,3-b]pyridin-2-yl)acetamide]
JAK1-JH1JH2
  IC50: 0.1 nM
JAK2-JH1JH2
  IC50: 2.4 nM
JAK3-JH1JH2
  IC50: 31.8 nM
Tyk2-JH1JH2
  IC50: 4.4 nM

## CC(C)(C)C/C(=N/O)NCc1nc2cnc3[nH]ccc3c2n1[C@H]1CC[C@H](CC#N)CC1 [Ex. 101]
JAK1-JH1JH2
  IC50: 0.5 nM
JAK2-JH1JH2
  IC50: 29.7 nM
JAK3-JH1JH2
  IC50: 182 nM
Tyk2-JH1JH2
  IC50: 6.7 nM

## N#CC[C@H]1CC[C@H](n2c(C3CNC3)nc3cnc4[nH]ccc4c32)CC1 [Ex. 159, 2-((1r,4r)-4-(2-(Azetidin-3-yl)imidazo[4,5-d]pyrrolo[2,3-b]pyridin-1(6H)-yl)cyclohexyl)acetonitrile]
JAK1-JH1JH2
  IC50: 1.6 nM
JAK2-JH1JH2
  IC50: 57 nM
JAK3-JH1JH2
  IC50: 1230 nM
Tyk2-JH1JH2
  IC50: 19 nM

## N#CC[C@H]1CC[C@H](n2c(CC(=O)NC34CCC(C(N)=O)(CC3)CC4)nc3cnc4[nH]ccc4c32)CC1 [Ex. 58, 4-(2-(1-((1r,4r)-4-(Cyanomethyl)cyclohexyl)-1,6-dihydroimidazo[4,5-d]pyrrolo[2,3-b]pyridin-2-yl)acetamido)bicyclo[2.2.2]octane-1-carboxamide]
JAK1-JH1JH2
  IC50: 0.3 nM
JAK2-JH1JH2
  IC50: 1.4 nM
JAK3-JH1JH2
  IC50: 31.4 nM
Tyk2-JH1JH2
  IC50: 3.3 nM

## N#CC[C@H]1CC[C@H](n2c(CC(=O)NC34CCC(C(N)=O)(CC3)C4)nc3cnc4[nH]ccc4c32)CC1 [Ex. 54, 4-(2-(1-((1r,4r)-4-(Cyanomethyl)cyclohexyl)-1,6-dihydroimidazo[4,5-d]pyrrolo[2,3-b]pyridin-2-yl)acetamido)bicyclo[2.2.1]heptane-1-carboxamide]
JAK1-JH1JH2
  IC50: 0.2 nM
JAK2-JH1JH2
  IC50: 2.1 nM
JAK3-JH1JH2
  IC50: 42 nM
Tyk2-JH1JH2
  IC50: 4.2 nM

## N#CC[C@H]1CC[C@H](n2c(-c3ccc(S(F)(F)(F)(F)F)cc3)nc3cnc4[nH]ccc4c32)CC1 [Ex. 143, 2-((1r,4r)-4-(2-(4-(Pentafluoro-λ^6-sulfanyl)phenyl)imidazo[4,5-d]pyrrolo[2,3-b]pyridin-1(6H)-yl)cyclohexyl)acetonitrile]
JAK1-JH1JH2
  IC50: 0.9 nM
JAK2-JH1JH2
  IC50: 38.5 nM
JAK3-JH1JH2
  IC50: 1270 nM
Tyk2-JH1JH2
  IC50: 117 nM

## N#CC[C@H]1CC[C@H](n2c(C(=O)NC3COC3)nc3cnc4[nH]ccc4c32)CC1 [Ex. 122, 1-((1r,4r)-4-(Cyanomethyl)cyclohexyl)-N-(oxetan-3-yl)-1,6-dihydroimidazo[4,5-d]pyrrolo[2,3-b]pyridine-2-carboxamide]
JAK1-JH1JH2
  IC50: 0.7 nM
JAK2-JH1JH2
  IC50: 20.8 nM
JAK3-JH1JH2
  IC50: 437 nM
Tyk2-JH1JH2
  IC50: 21.6 nM

## [H]/N=C(\c1ccccc1)N(O)Cc1nc2cnc3[nH]ccc3c2n1[C@H]1CC[C@H](CC#N)CC1 [Ex. 17A, (E)-N-((1-((1r,4r)-4-(Cyanomethyl)cyclohexyl)-1,6-dihydroimidazo[4,5-d]pyrrolo[2,3-b]pyridin-2-yl)methyl)-N-hydroxybenzimidamide]
JAK1-JH1JH2
  IC50: 0.1 nM
JAK2-JH1JH2
  IC50: 1.2 nM
JAK3-JH1JH2
  IC50: 65.8 nM
Tyk2-JH1JH2
  IC50: 1.4 nM

## N#CC[C@H]1CC[C@H](n2c(CC(=O)NCc3ccc(OC(F)F)cc3)nc3cnc4[nH]ccc4c32)CC1 [Ex. 79, 2-(1-((1r,4r)-4-(cyanomethyl)cyclohexyl)-1,6-dihydroimidazo[4,5-d]pyrrolo[2,3-b]pyridin-2-yl)-N-(4-(difluoromethoxy)benzyl)acetamide]
JAK1-JH1JH2
  IC50: 0.4 nM
JAK2-JH1JH2
  IC50: 10.6 nM
JAK3-JH1JH2
  IC50: 223 nM
Tyk2-JH1JH2
  IC50: 13.3 nM

## N#CC[C@H]1CC[C@H](n2c(CC(=O)NCCOCCOCCN)nc3cnc4[nH]ccc4c32)CC1 [Ex. 193, N-(2-(2-(2-Aminoethoxy)ethoxy)ethyl)-2-(1-((1r,4r)-4-(cyanomethyl)cyclohexyl)-1,6-dihydroimidazo[4,5-d]pyrrolo[2,3-b]pyridin-2-yl)acetamide]
JAK1-JH1JH2
  IC50: 0.2 nM
JAK2-JH1JH2
  IC50: 10.1 nM
JAK3-JH1JH2
  IC50: 69.5 nM
Tyk2-JH1JH2
  IC50: 5.3 nM

## N#CC[C@H]1CC[C@H](n2c(CNC(=O)Oc3ccccc3)nc3cnc4[nH]ccc4c32)CC1 [Ex. 46, Phenyl ((1-((1r,4r)-4-(cyanomethyl)cyclohexyl)-1,6-dihydroimidazo[4,5-d]pyrrolo[2,3-b]pyridin-2-yl)methyl)carbamate]
JAK1-JH1JH2
  IC50: 0.2 nM
JAK2-JH1JH2
  IC50: 14.5 nM
JAK3-JH1JH2
  IC50: 214 nM
Tyk2-JH1JH2
  IC50: 5.5 nM

## N#CC[C@H]1CC[C@H](n2c(CC(=O)NC34CCC(C#N)(CC3)C4)nc3cnc4[nH]ccc4c32)CC1 [Ex. 23, N-(4-Cyanobicyclo[2.2.1]heptan-1-yl)-2-(1-((1r,4r)-4-(cyanomethyl)cyclohexyl)-1,6-dihydroimidazo[4,5-d]pyrrolo[2,3-b]pyridin-2-yl)acetamide]
JAK1-JH1JH2
  IC50: 0.1 nM
JAK2-JH1JH2
  IC50: 1.4 nM
JAK3-JH1JH2
  IC50: 38.1 nM
Tyk2-JH1JH2
  IC50: 3.5 nM

## N#CC[C@H]1CC[C@H](n2c(CC(=O)NC3CCSCC3)nc3cnc4[nH]ccc4c32)CC1 [Ex. 83, 2-(1-((1r,4r)-4-(Cyanomethyl)cyclohexyl)-1,6-dihydroimidazo[4,5-d]pyrrolo[2,3-b]pyridin-2-yl)-N-(tetrahydro-2H-thiopyran-4-yl)acetamide]
JAK1-JH1JH2
  IC50: 0.4 nM
JAK2-JH1JH2
  IC50: 4.1 nM
JAK3-JH1JH2
  IC50: 30 nM
Tyk2-JH1JH2
  IC50: 9.4 nM

## COC1CCN(C(=O)c2nc3cnc4[nH]ccc4c3n2[C@H]2CC[C@H](CC#N)CC2)CC1 [Ex. 176, 2-((1r,4r)-4-(2-(4-Methoxypiperidine-1-carbonyl)imidazo[4,5-d]pyrrolo[2,3-b]pyridin-1(6H)-yl)cyclohexyl)acetonitrile]
JAK1-JH1JH2
  IC50: 2.6 nM
JAK2-JH1JH2
  IC50: 157 nM
JAK3-JH1JH2
  IC50: 3250 nM
Tyk2-JH1JH2
  IC50: 127 nM

## COCC/C(N)=N/OCc1nc2cnc3[nH]ccc3c2n1[C@H]1CC[C@H](CC#N)CC1 [Ex. 72, (Z*)—N-((1-((1r,4r)-4-(Cyanomethyl)cyclohexyl)-1,6-dihydroimidazo[4,5-d]pyrrolo[2,3-b]pyridin-2-yl)methoxy)-3-methoxypropanimidamide]
JAK1-JH1JH2
  IC50: 0.4 nM
JAK2-JH1JH2
  IC50: 5.2 nM
JAK3-JH1JH2
  IC50: 181 nM
Tyk2-JH1JH2
  IC50: 27.2 nM

## CN1CCC(NC(=O)c2nc3cnc4[nH]ccc4c3n2[C@H]2CC[C@H](CC#N)CC2)CC1 [Ex. 84, 1-((1r,4r)-4-(Cyanomethyl)cyclohexyl)-N-(1-methylpiperidin-4-yl)-1,6-dihydroimidazo[4,5-d]pyrrolo[2,3-b]pyridine-2-carboxamide]
JAK1-JH1JH2
  IC50: 0.4 nM
JAK2-JH1JH2
  IC50: 27.1 nM
JAK3-JH1JH2
  IC50: 1120 nM
Tyk2-JH1JH2
  IC50: 10.4 nM

## N#CC[C@H]1CC[C@H](n2c(-c3ccc(C#N)nc3)nc3cnc4[nH]ccc4c32)CC1 [Ex. 115, 5-(1-((1r,4r)-4-(Cyanomethyl)cyclohexyl)-1,6-dihydroimidazo[4,5-d]pyrrolo[2,3-b]pyridin-2-yl)picolinonitrile]
JAK1-JH1JH2
  IC50: 0.6 nM
JAK2-JH1JH2
  IC50: 73.2 nM
JAK3-JH1JH2
  IC50: 754 nM
Tyk2-JH1JH2
  IC50: 86.2 nM

## N#CCc1ccc(NC(=O)Cc2nc3cnc4[nH]ccc4c3n2[C@H]2CC[C@H](CC#N)CC2)cc1 [Ex. 8, 2-(1-((1r,4r)-4-(Cyanomethyl)cyclohexyl)-1,6-dihydroimidazo[4,5-d]pyrrolo[2,3-b]pyridin-2-yl)-N-(4-(cyanomethyl)phenyl)acetamide]
JAK1-JH1JH2
  IC50: 0.1 nM
JAK2-JH1JH2
  IC50: 0.5 nM
JAK3-JH1JH2
  IC50: 12.9 nM
Tyk2-JH1JH2
  IC50: 0.7 nM

## CC(C)/C(=N/O)NCc1nc2cnc3[nH]ccc3c2n1[C@H]1CC[C@H](CC#N)CC1 [Ex. 61, (EZ)—N-((1-((1r,4r)-4-(cyanomethyl)cyclohexyl)-1,6-dihydroimidazo[4,5-d]pyrrolo[2,3-b]pyridin-2-yl)methyl)-N-hydroxyisobutyrimidamide]
JAK1-JH1JH2
  IC50: 0.3 nM
JAK2-JH1JH2
  IC50: 25.7 nM
JAK3-JH1JH2
  IC50: 219 nM
Tyk2-JH1JH2
  IC50: 6.3 nM

## N#CC[C@H]1CC[C@H](n2c(C(=O)N3CCC(C#N)CC3)nc3cnc4[nH]ccc4c32)CC1 [Ex. 177, 1-(1-((1r,4r)-4-(Cyanomethyl)cyclohexyl)-1,6-dihydroimidazo[4,5-d]pyrrolo[2,3-b]pyridine-2-carbonyl)piperidine-4-carbonitrile]
JAK1-JH1JH2
  IC50: 2.7 nM
JAK2-JH1JH2
  IC50: 161 nM
JAK3-JH1JH2
  IC50: 2370 nM
Tyk2-JH1JH2
  IC50: 102 nM
